In publication PMC9505123, “Zeta-Carotene Isomerase (Z-ISO) Is Required for Light-Independent Carotenoid Biosynthesis in the Cyanobacterium Synechocystis sp. PCC 6803” (Microorganisms, 2022):

Molecular target: T1, Synechocystis ZDS (CrtQ) (Synechocystis sp. PCC 6803, UniProt P74306)
T1 construct: pCDFDuet-1 MCS1, co-expressed with slr1599 (pAH587) or maize Z-ISO (pAH590) in E. coli BL21(DE3) with pAC-ZETAipi
T1 sequence (P74306 1-489): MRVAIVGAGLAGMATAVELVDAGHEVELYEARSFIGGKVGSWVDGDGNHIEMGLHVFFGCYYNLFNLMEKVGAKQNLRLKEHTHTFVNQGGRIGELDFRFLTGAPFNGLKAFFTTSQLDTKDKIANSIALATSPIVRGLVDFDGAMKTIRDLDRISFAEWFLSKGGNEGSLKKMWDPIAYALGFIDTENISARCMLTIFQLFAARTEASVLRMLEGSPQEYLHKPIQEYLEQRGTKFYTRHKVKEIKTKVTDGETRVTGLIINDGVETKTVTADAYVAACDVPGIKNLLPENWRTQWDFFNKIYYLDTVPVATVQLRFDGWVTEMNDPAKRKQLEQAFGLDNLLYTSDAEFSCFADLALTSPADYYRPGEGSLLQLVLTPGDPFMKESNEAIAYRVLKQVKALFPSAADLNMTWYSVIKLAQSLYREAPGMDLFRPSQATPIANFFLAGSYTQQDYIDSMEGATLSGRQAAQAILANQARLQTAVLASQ
Assay: RP-HPLC of carotenoids from dark-grown E. coli co-expressing pAC-ZETAipi and Z-ISO
Format: cell-based
Details: 37 °C, 24 h, substrate formed in situ by Slr1599 or maize Z-ISO, converted to cis-lycopene isomers

## CC(C)=CCC/C(C)=C/CC\C(C)=C/C=C/C(C)=C/C=C/C=C(C)/C=C/C=C(/C)CC/C=C(\C)CCC=C(C)C [9,9′-di-cis-ζ-carotene]
  RP-HPLC of carotenoids from dark-grown E. coli co-expressing pAC-ZETAipi and Z-I: ζ-carotene species were almost completely absent and a variety of new carotenoid species
